Test results published in ChEMBL document CHEMBL1201862, “PubChem BioAssay data set” (2004).
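Briefly, cells in 96-well plates were exposed to five compound concentrations for 48 h, and endpoints were estimated by linear interpolation. Here, GI50 denotes the concentration required for 50% inhibition of growth.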 The source made the active and inactive calls. Cut-off read from the data, not from the text of the source: active = GI50 up to about 1.1 µM and inactive = higher.

Columns and labels:
Assay in all cases: NCI-60 cell line screen, 48 h
[1] = tested on: SN12C
[2] = tested on: A498
[3] = tested on: HL-60
[4] = tested on: NCI-H23
[5] = tested on: PC-3
[6] = tested on: SNB-19
[7] = tested on: OVCAR-5
[8] = tested on: SK-MEL-5
[9] = tested on: MDA-MB-435
[10] = tested on: OVCAR-3
[11] = tested on: Hs-578T
[12] = tested on: T47D
[13] = tested on: HOP-62
[14] = tested on: SR
[15] = tested on: SF-295
[16] = tested on: IGROV-1
[17] = tested on: Malme-3M
[18] = tested on: COLO 205
[19] = tested on: UACC-62
[20] = tested on: HCT-15
[21] = tested on: CCRF-CEM
[22] = tested on: MCF7
[23] = tested on: OVCAR-4
[24] = tested on: RPMI-8226
[25] = tested on: M14
[26] = tested on: SF-268
[27] = tested on: BT-549
[28] = tested on: KM12
[29] = tested on: SW-620
[30] = tested on: K562
[31] = tested on: RXF 393
[32] = tested on: OVCAR-8
[33] = tested on: 786-0
[34] = tested on: EKVX
[35] = tested on: HOP-92
[36] = tested on: UO-31
[37] = tested on: A549
[38] = tested on: ACHN
[39] = tested on: SNB-75
[40] = tested on: SK-MEL-28
[41] = tested on: SK-OV-3
[42] = tested on: DU-145
[43] = tested on: HT-29
[44] = tested on: SK-MEL-2
[45] = tested on: SF-539
[46] = tested on: CAKI-1
[47] = tested on: NCI-H226
[48] = tested on: HCT-116
[49] = tested on: MDA-MB-231
[50] = tested on: LOX IMVI
[51] = tested on: U-251
[52] = tested on: NCI-H522
[53] = tested on: NCI/ADR-RES
[54] = tested on: MOLT-4
[55] = tested on: TK-10
[56] = tested on: NCI-H460
[57] = tested on: MDA-N
[58] = tested on: HCC 2998
[59] = tested on: UACC-257

O=C(CSc1nc2ccc(I)cc2c(=O)n1Cc1ccccc1)Nc1ccc(Br)cc1
GI50 [1]: 37.2 µM (inactive) | GI50 [2]: 22.5 µM (inactive) | GI50 [3]: > 100 µM (inactive) | GI50 [4]: > 100 µM (inactive) | GI50 [5]: 17.5 µM (inactive) | GI50 [6]: 68.1 µM (inactive) | GI50 [7]: 44.5 µM (inactive) | GI50 [8]: 43.2 µM (inactive) | GI50 [9]: > 100 µM (inactive) | GI50 [10]: 63 µM (inactive) | GI50 [11]: 17.8 µM (inactive) | GI50 [12]: 97.9 µM (inactive) | GI50 [13]: 78.2 µM (inactive) | GI50 [14]: 11.3 µM (inactive) | GI50 [15]: 35.6 µM (inactive) | GI50 [16]: 29.2 µM (inactive) | GI50 [17]: 16.6 µM (inactive) | GI50 [18]: 59.4 µM (inactive) | GI50 [19]: > 100 µM (inactive) | GI50 [20]: 36 µM | GI50 [21]: > 100 µM (inactive) | GI50 [22]: > 100 µM (inactive) | GI50 [23]: 34.7 µM (inactive) | GI50 [24]: > 100 µM (inactive) | GI50 [25]: 56.5 µM (inactive) | GI50 [26]: 12.2 µM (inactive) | GI50 [27]: 37.1 µM (inactive) | GI50 [28]: 78.7 µM (inactive) | GI50 [29]: 97.5 µM (inactive) | GI50 [30]: 24.7 µM (inactive) | GI50 [31]: 43.9 µM (inactive) | GI50 [32]: 13.4 µM (inactive) | GI50 [33]: 58.6 µM (inactive) | GI50 [34]: 12.9 µM (inactive) | GI50 [35]: 60.3 µM (inactive) | GI50 [36]: 0.114 µM (active) | GI50 [37]: > 100 µM (inactive) | GI50 [38]: > 100 µM (inactive) | GI50 [39]: 13.8 µM (inactive) | GI50 [40]: 49.4 µM (inactive) | GI50 [41]: > 100 µM (inactive) | GI50 [42]: 70.5 µM (inactive) | GI50 [43]: > 100 µM (inactive) | GI50 [44]: 64.1 µM (inactive) | GI50 [45]: 2.32 µM (inactive) | GI50 [46]: 1.35 µM (inactive) | GI50 [47]: 25.9 µM (inactive) | GI50 [48]: 88.5 µM (inactive) | GI50 [49]: 17.2 µM (inactive) | GI50 [50]: > 100 µM (inactive) | GI50 [51]: 39 µM (inactive) | GI50 [52]: 46.7 µM (inactive) | GI50 [53]: 51.9 µM (inactive) | GI50 [54]: > 100 µM (inactive)

CC(C)=CCC[C@@H](C)C1=C(O)C(=O)C(C)=C(c2c(I)c(=O)n(C)c(=O)n2C)C1=O
GI50 [1]: > 100 µM (inactive) | GI50 [2]: > 100 µM (inactive) | GI50 [3]: 74.6 µM (inactive) | GI50 [4]: > 100 µM (inactive) | GI50 [55]: > 100 µM (inactive) | GI50 [5]: 49.7 µM (inactive) | GI50 [6]: > 100 µM (inactive) | GI50 [7]: > 100 µM (inactive) | GI50 [9]: > 100 µM (inactive) | GI50 [10]: > 100 µM (inactive) | GI50 [11]: 76.6 µM (inactive) | GI50 [12]: > 100 µM (inactive) | GI50 [13]: > 100 µM (inactive) | GI50 [15]: > 100 µM (inactive) | GI50 [16]: 60.3 µM (inactive) | GI50 [56]: > 100 µM (inactive) | GI50 [17]: > 100 µM (inactive) | GI50 [18]: > 100 µM (inactive) | GI50 [20]: > 100 µM | GI50 [21]: > 100 µM (inactive) | GI50 [22]: > 100 µM (inactive) | GI50 [23]: > 100 µM (inactive) | GI50 [24]: 61 µM (inactive) | GI50 [25]: > 100 µM (inactive) | GI50 [26]: > 100 µM (inactive) | GI50 [27]: > 100 µM (inactive) | GI50 [28]: > 100 µM (inactive) | GI50 [29]: > 100 µM (inactive) | GI50 [30]: 61.9 µM (inactive) | GI50 [57]: > 100 µM (inactive) | GI50 [32]: > 100 µM (inactive) | GI50 [33]: > 100 µM (inactive) | GI50 [34]: > 100 µM (inactive) | GI50 [35]: > 100 µM (inactive) | GI50 [58]: > 100 µM (inactive) | GI50 [36]: > 100 µM (inactive) | GI50 [37]: 61 µM (inactive) | GI50 [38]: > 100 µM (inactive) | GI50 [39]: > 100 µM (inactive) | GI50 [40]: > 100 µM (inactive) | GI50 [41]: > 100 µM (inactive) | GI50 [42]: > 100 µM (inactive) | GI50 [43]: > 100 µM (inactive) | GI50 [44]: > 100 µM (inactive) | GI50 [45]: > 100 µM (inactive) | GI50 [46]: > 100 µM (inactive) | GI50 [47]: > 100 µM (inactive) | GI50 [48]: > 100 µM (inactive) | GI50 [50]: > 100 µM (inactive) | GI50 [59]: > 100 µM (inactive) | GI50 [53]: > 100 µM (inactive) | GI50 [54]: 36.8 µM (inactive)
